Source: US20210230178A1, “TRIOXACARCIN ANALOGS AND DIMERS AS POTENT ANTICANCER AGENTS” (William Marsh Rice University, priority 2017, published 2021)
pIC50: −log10 of the molar value.

Experiments:
Experiment in all cases: cells
[1] = system: HEK 293T (human embryonic kidney cancer cell line); settings: 72 h, read-out: IC50 HEK 293T
[2] = system: MES SA (human uterine sarcoma); settings: 72 h, read-out: IC50 MES SA
[3] = system: MES SA DX (human uterine sarcoma cell line with marked multidrug resistance); settings: 72 h, read-out: IC50 MES SA DX

Row | SMILES | pIC50 [1] | pIC50 [2] | pIC50 [3]
1 | COc1c2c(c(O)c3c4c(c(C)cc13)C1O[C@@]3(C5OCCCO5)OC1[C@@](O[C@H]1C[C@H](OC(C)=O)[C@@](O)(C(C)=O)[C@H](C)O1)(O4)[C@@]31CO1)C(=O)CCC2 (stereo partly drawn) [Trx20, (1S,2R,13aS)-2-(1,3-dioxan-2-yl)-12-hydroxy-7-methoxy-5-methyl-11-oxo-3a,4,8,9,10,11-hexahydro-13aH-spiro[2,4-epoxyfuro[3,2-b]naphtho[2,3-h]chromene-1,2′-oxiran]-13a-yl 4-C-acetyl-3-O-acetyl-2,6-dideoxy-α-L-lyxo-hexopyranoside] | 8.37 | 8.29 | 7.28
2 | COc1c2c(c(O)c3c4c(c(C)cc13)[C@H]1O[C@]3(C5OCCO5)O[C@@H]1[C@](OC)(O4)[C@@]31CO1)C(=O)CCC2 [Trx9, (1S,2S,3aS,4R,13aS)-2-(1,3-Dioxolan-2-yl)-12-hydroxy-7,13a-dimethoxy-5-methyl-3a,4,8,9,10,13a-hexahydro-11H-spiro[2,4-epoxyfuro[3,2-b]naphtho[2,3-h]chromene-1,2′-oxiran]-11-one] | 8.69 | 8.33 | 8.58
3 | C=CCOC(=O)N(C(C)C)[C@H]1CO[C@@H](O[C@@]23Oc4c(c(C)cc5c(OC)c6c(c(O)c45)C(=O)CCC6)C4OC(C5OCCCO5)(OC42)[C@]32CO2)C[C@@H]1OC (stereo partly drawn) [Trx18, (1S,13aS)-2-(1,3-Dioxan-2-yl)-12-hydroxy-7-methoxy-5-methyl-11-oxo-3a,4,8,9,10,11-hexahydro-13aH-spiro[2,4-epoxyfuro[3,2-b]naphtho[2,3-h]chromene-1,2′-oxiran]-13a-yl 4-{[(allyloxy)carbonyl](isopropyl)amino}-2,4-dideoxy-3-O-methyl-α-L-threo-pentopyranoside] | 7.40 | < 6.00 | < 6.00
4 | C=CCO[C@@]12Oc3c(c(C)cc4c(OC)c5c(c(O)c34)C(=O)CCC5)[C@H]3O[C@](C4OCCCO4)(O[C@@H]31)[C@]21CO1 [Trx17, (1S,2S,3aS,4R,13aR)-13a-(Allyloxy)-2-(1,3-dioxan-2-yl)-12-hydroxy-7-methoxy-5-methyl-3a,4,8,9,10,13a-hexahydro-11H-spiro[2,4-epoxyfuro[3,2-b]naphtho[2,3-h]chromene-1,2′-oxiran]-11-one] | 8.56 | 8.31 | 8.46
5 | COCO[C@@]12Oc3c(c(C)cc4c(OC)c5c(c(O)c34)C(=O)CCC5)[C@H]3O[C@](C4OCCO4)(O[C@@H]31)[C@]21CO1 [Trx10, (1S,2S,3aS,4R,13aS)-2-(1,3-Dioxolan-2-yl)-12-hydroxy-7-methoxy-13a-(methoxymethoxy)-5-methyl-3a,4,8,9,10,13a-hexahydro-11H-spiro[2,4-epoxyfuro[3,2-b]naphtho[2,3-h]chromene-1,2′-oxiran]-11-one] | 8.82 | 8.41 | 8.66
6 | COc1c2c(c(O)c3c4c(c(C)cc13)C1O[C@@]3(C5OCCCO5)OC1C(O[C@H]1C[C@H](OC)[C@@H](NC(C)C)CO1)(O4)[C@@]31CO1)C(=O)CCC2 (stereo partly drawn) [Trx19, (1S,2R)-2-(1,3-dioxan-2-yl)-12-hydroxy-7-methoxy-5-methyl-11-oxo-3a,4,8,9,10,11-hexahydro-13aH-spiro[2,4-epoxyfuro[3,2-b]naphtho[2,3-h]chromene-1,2′-oxiran]-13a-yl 2,4-dideoxy-4-(iso-propylamino)-3-O-methyl-α-L-threo-pentopyranoside] | 9.11 | 9.02 | 7.15
7 | COc1c2c(c(O)c3c4c(c(C)cc13)C1OC3(C5OCCCO5)OC1[C@@](OC(C)=O)(O4)[C@@]31CO1)C(=O)CCC2 (stereo partly drawn) [Trx14] | 8.16 | 8.21 | 7.76
8 | COc1c2c(c(O)c3c4c(c(C)cc13)[C@H]1O[C@]3(C5OCCO5)O[C@@H]1[C@@](O)(O4)[C@@]31CO1)C(=O)CCC2 [Trx8, (1S,2S,3aS,4R,13aR)-2-(1,3-Dioxolan-2-yl)-12,13a-dihydroxy-7-methoxy-5-methyl-3a,4,8,9,10,13a-hexahydro-11H-spiro[2,4-epoxyfuro[3,2-b]naphtho[2,3-h]chromene-1,2′-oxiran]-11-one] | 7.51 | 7.29 | 7.31
9 | COc1c2c(c(O)c3c4c(c(C)cc13)C1OC3(C5OCCCO5)OC1[C@@](O)(O4)[C@@]31CO1)C(=O)CCC2 (stereo partly drawn) [Trx12] | 8.61 | 8.43 | 8.24
10 | COc1c2c(c(O)c3c4c(c(C)cc13)C1O[C@@]3(C5OCCCO5)OC1[C@@](O[C@H]1C[C@H](O)[C@@](O)([C@@H](C)O)[C@H](C)O1)(O4)[C@@]31CO1)C(=O)CCC2 (stereo partly drawn) [Trx23, (1S,2R,13aS)-2-(1,3-dioxan-2-yl)-12-hydroxy-7-methoxy-5-methyl-11-oxo-3a,4,8,9,10,11-hexahydro-13aH-spiro[2,4-epoxyfuro[3,2-b]naphtho[2,3-h]chromene-1,2′-oxiran]-13a-yl 2,6-dideoxy-4-C-[(1R)-1-hydroxyethyl]-α-L-lyxo-hexopyranoside] | 8.56 | 8.23 | 7.47
11 | CO[C@@]12Oc3c4c(cc(C)c3[C@H]3O[C@](C5OCCCO5)(O[C@@H]31)[C@]21CO1)C(=O)c1cccc(OC(C)=O)c1C4=O [Trx29, (1S,2S,3aS,4R,13aR)-2-(1,3-Dioxan-2-yl)-13a-methoxy-5-methyl-7,12-dioxo-3a,7,12,13a-tetrahydro-4H-spiro[2,4-epoxyfuro[3,2-b]naphtho[2,3-h]chromene-1,2′-oxiran]-11-yl acetate] | 8.73 | 8.84 | 8.98
12 | Cc1cc2c(c3c1[C@H]1O[C@]4(C5OCCCO5)O[C@@H]1[C@@](O)(O3)[C@@]41CO1)C(=O)c1c(O)cccc1C2=O [Trx30, (1S,2S,3aS,4R,13aR)-2-(1,3-Dioxan-2-yl)-11,13a-dihydroxy-5-methyl-3a,13a-dihydro-4H-spiro[2,4-epoxyfuro[3,2-b]naphtho[2,3-h]chromene-1,2′-oxirane]-7,12-dione] | 7.30 | 7.38 | 7.42
13 | CO[C@@]12Oc3c4c(cc(C)c3[C@H]3O[C@](C5OCCCO5)(O[C@@H]31)[C@]21CO1)C(=O)c1cccc(O)c1C4=O [Trx31, (1S,2S,3aS,4R,13aR)-2-(1,3-Dioxan-2-yl)-11-hydroxy-13a-methoxy-5-methyl-3a,13a-dihydro-4H-spiro[2,4-epoxyfuro[3,2-b]naphtho[2,3-h]chromene-1,2′-oxirane]-7,12-dione] | 8.84 | 8.96 | 9.19
14 | CC(=O)Oc1cccc2c1C(=O)c1c(cc(C)c3c1O[C@]1(OC(C)=O)[C@H]4O[C@@](C5OCCCO5)(O[C@H]34)[C@]13CO3)C2=O [Trx28, (1S,2S,3aS,4R,13aS)-2-(1,3-Dioxan-2-yl)-5-methyl-7,12-dioxo-3a,4,7,12-tetrahydro-13aH-spiro[2,4-epoxyfuro[3,2-b]naphtho[2,3-h]chromene-1,2′-oxirane]-11,13a-diyl diacetate] | 7.95 | 7.96 | 7.93
15 | CC(=O)Oc1c(Cl)ccc2c1C(=O)c1c(cc(C)c3c1O[C@]1(OC(C)=O)[C@H]4O[C@@](C5OCCCO5)(O[C@H]34)[C@]13CO3)C2=O [Trx32, (1S,2S,3aS,4R,13aS)-10-Chloro-2-(1,3-dioxan-2-yl)-5-methyl-7,12-dioxo-3a,4,7,12-tetrahydro-13aH-spiro[2,4-epoxyfuro[3,2-b]naphtho[2,3-h]chromene-1,2′-oxirane]-11,13a-diyl diacetate] | 8.17 | 8.22 | 8.36
